Assay results reported in patent US7256182B2, “Gene delivery compositions and methods” (priority 1997, dated 2007).

System: cardiac myocytes of acutely explanted rabbit heart
Experiment: Adenovirus gene transfer in Langendorff-perfused explanted rabbit heart; β-galactosidase staining of isolated myocytes
Method: Adenovirus vectors. Adβgal contained the E. coli lac Z gene driven by the human cytomegalovirus (CMV) immediate early promoter. Virus stocks were expanded as previously described in Graham F L, Prevec L: Manipulation of adenovirus vectors, in Murray E J (ed): Methods in molecular biology. Clifton, N.J., Humana, 1991, pp 109-128, aliquoted in small volumes, and stored in phosphate-buffered saline (PBS) with 10% sucrose at −80° C. Viral titers were determined by the average of two plaque assays performed using a traditional method as described in Methods in molecular biology, supra.
Statistical Analysis. Unless otherwise stated, all experiments were performed in triplicate and the data are presented as mean ±s.d. Statistical significance was determined at the 5% level using the unpaired Student's t-test.
Baseline conditions for the Langendorff-perfusion experiments included a coronary flow rate of 30 ml/min, and perfusion with Krebs solution containing 1.0 mmol/L Ca^2+ and 1.0×10^8 pfu/ml of Adβgal at 37° C. All infections occurred in Krebs solution.
Acutely explanted rabbit heart (New Zealand White; 2-3 kg total body weight) were employed for gene transfer tests of this Example 1 and the following Example 2. The rabbits received heparin anticoagulation (1000 units IV) prior to pentobarbital (50 mg/kg IV). […]

SMILES: NCCc1c[nH]c2ccc(O)cc12 [serotonin]
- change in percentage of infected myocytes by supplemental agent (agent perfused to enhance microvascular permeability, versus baseline): significant increase
- percentage of infected myocytes (pretreatment 500 ml normal Krebs with 10^-5 M agent over 15 minutes, agent also present during Adβgal infection): 77.8±2.3%
